In patent publication US4863493A, “High purity acetylene gas” (Nichigo Acetylene Kabushiki Kaisha, priority 1987, dated 1989):

Experiments:
[1] = Acetylene stripped from DMF saturated with acetylene on heating; format: physicochemical; settings: heated to 0° C.
Description: The amount of acetylene dissolved in a solvent depends on the temperature of the solvent. Usually increasing the temperature tends to decrease the solubility. […] As mentioned above, the terminology "stripped acetylene" is intended to refer to "acetylene stripped from a solvent".

[2] = in DMF, at 25° C.; data from catalogue of NITTO CHEMICAL INDUSTRY CO., LTD.; cited from earlier work

acetylene at S.T.P. stripped from 1 l of DMF ([1]; DMF saturated with acetylene at -40° C.) | acetylene at S.T.P. stripped from 1 l of DMF ([1]; DMF saturated with acetylene at -60° C.) | SMILES | Solubility [2] [l/l]
about 238 l | about 382 l | C#C [C2 H2, acetylene] | 31.4
 |  | O=C=O [CO2, carbon dioxide] | 4.5
 |  | [C-]#[O+] [CO] | 0.06
 |  | [HH] [H2, hydrogen] | 0.04
